“And” between values parts separate entries of the source, which are not always exact repeats. Identical values can stand only once. “Also recorded” adds a separate entry of the source.
What was measured:
[1] = ICG distribution after administration in patient derived orthotopic xenograft (PDOX) mouse model; type: in vivo
From the text: (§1) We set up a study of PDT with ICG using patient derived orthotopic xenograft (PDOX) mouse model (FIG. 7). In the PDOX model, the mouse liver has human liver cancer. […] We then found the optimal laser wavelength that liver-ICG can absorb with maximum intensity which was 809 nm (FIG. 2). We set up the laser to treat HCC with PDT with the setting numbers in Table 1.

HCC (human liver cancer) = assay: PDT with ICG (809 nm laser) in PDOX mouse model; type: in vivo
From the text: as §1

[2] = Optimal laser wavelength that liver-ICG can absorb with maximum intensity; type: physicochemical; conditions: FIG. 2
From the text: as §1

CC1(C)C(/C=C/C=C/C=C/C=C2\N(CCCCS(=O)(=O)O)c3ccc4ccccc4c3C2(C)C)=[N+](CCCCS(=O)(=O)[O-])c2ccc3ccccc3c21 [ICG, indocyanine green]
ICG localisation ([1]; at 0 hr after ICG administration): present in the whole body | ICG localisation ([1]; at 6 hrs after ICG administration): present in the liver | ICG localisation ([1]; at 24 hrs after ICG administration): confined to a liver tumor; also recorded: confined in only HCC inside the liver | finding on MRI after treatment (HCC (human liver cancer); 2 weeks after treatment, PDOX mouse): tumor necrosis | pathologic evaluation of HCC (HCC (human liver cancer); specimen after PDT with ICG): apoptosis of HCC | optimal laser wavelength that liver-ICG can absorb with maximum intensity [2]: 805-815 nm and 809 nm

Reference: US20250065147A1, “SYSTEMS AND METHODS FOR PHOTODYNAMIC THERAPY” (Virginia Commonwealth University, priority 2023, published 2025)
